According to the supplement of paper PMC8967900:

How the values were obtained:
Experiment in all cases: selective drug sensitivity score (sDSS, relative to normal bone marrow) (sDSS (score)); higher = more potent and effective on the cell line relative to normal bone marrow cells
Conditions in all cases: 72 h
CCRF-HSB2 = test system: CCRF-HSB2
KOPN-8 = test system: KOPN-8
TANOUE = test system: TANOUE
KASUMI-9 = test system: KASUMI-9
KASUMI-10 = test system: KASUMI-10
KASUMI-2 = test system: KASUMI-2
NALM-6 = test system: NALM-6
LC4-1 = test system: LC4-1
SEM cells = test system: SEM cells
SUP-B15 = test system: SUP-B15
MOLT-4 = test system: MOLT-4
ALL-PO = test system: ALL-PO
MOLT-16 = test system: MOLT-16
COG-LL-319h = test system: COG-LL-319h
NALL-1 = test system: NALL-1
697 = test system: 697
TMD5 = test system: TMD5
MHH-CALL-4 = test system: MHH-CALL-4
PEER = test system: PEER
RCH-ACV = test system: RCH-ACV
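Also: ALL cell lines in 384-well plates, five doses spanning 10,000-fold, each plate scaled between vehicle and 100 µmol/L benzalkonium chloride controls, sDSS an adapted area-under-curve metric.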

SMILES | selective drug sensitivity score (CCRF-HSB2) | selective drug sensitivity score (KOPN-8) | selective drug sensitivity score (TANOUE) | selective drug sensitivity score (KASUMI-9) | selective drug sensitivity score (KASUMI-10) | selective drug sensitivity score (KASUMI-2) | selective drug sensitivity score (NALM-6) | selective drug sensitivity score (LC4-1) | selective drug sensitivity score (SEM cells) | selective drug sensitivity score (SUP-B15) | selective drug sensitivity score (MOLT-4) | selective drug sensitivity score (ALL-PO) | selective drug sensitivity score (MOLT-16) | selective drug sensitivity score (COG-LL-319h) | selective drug sensitivity score (NALL-1) | selective drug sensitivity score 697 | selective drug sensitivity score (TMD5) | selective drug sensitivity score (MHH-CALL-4) | selective drug sensitivity score (PEER) | selective drug sensitivity score (RCH-ACV)
Cc1cc(F)c(C(=O)Nc2cccc(-c3nncn3C(C)C)n2)cc1-n1cnc(C2CC2)c1 [Selonsertib] (top concentration 1000 nM) | 0 | 0 | 0 | 1.2 | 0 | 0 | 0 | 0 | 0 | 0 | 0 | 0 | 0 | 0 | 0 | 0.3 | 6.7 | 0.2 | 0 | 0.5
Cc1cnc(NC(=O)Nc2cc(Br)c(C)cc2OC[C@@H]2CNCCO2)cn1 [Rabusertib] (top concentration 1000 nM) | -0.74 | 1.66 | 0.46 | -0.04 | -0.74 | -0.74 | 1.16 | 0.16 | 1.26 | -0.74 | -0.74 | 0.46 | -0.14 | 4.26 | -0.74 | -0.74 | -0.74 | 0.16 | -0.74 | 2.06
Nc1cc(COc2c(Cl)cc(C[C@H](N)C(=O)O)cc2Cl)c2oc(-c3ccccc3)nc2c1 [JPH203] (top concentration 5000 nM) | 0 | 0 | 0 | 2.2 | 0.2 | 0 | 0 | 0 | 0 | 0 | 0 | 0 | 0 | 0 | 0 | 0 | 2.1 | 1.2 | 0 | 4.5
Oc1ccc2c(c1)CC[C@H](c1ccccc1)[C@@H]2c1ccc(OCCN2CCCC2)cc1 [Lasofoxifene] (top concentration 1000 nM) | -1.28 | -1.28 | -1.08 | -1.28 | -1.28 | -1.28 | -1.28 | -1.28 | -1.28 | -1.28 | -1.28 | -1.28 | 1.12 | 2.62 | -1.28 | -1.28 | -1.28 | -1.28 | -1.28 | -1.28
CN(CC(=O)N(Cc1ccc(C2CCCCC2)cc1)c1ccc(C(=O)O)cc1)S(=O)(=O)c1c(F)c(F)c(F)c(F)c1F [SH-4-54] (top concentration 25000 nM) | -5.04 | -1.94 | -4.04 | -6.14 | -3.64 | -2.84 | -3.34 | -3.34 | -6.14 | -5.94 | -6.04 | -6.04 | -6.74 | -3.04 | -6.84 | -2.64 | -5.94 | -5.44 | -4.54 | -2.24
O=C(O)CNC(=O)c1c(O)c2ccccc2n(Cc2ccccc2)c1=O [IOX-2] (top concentration 50000 nM) | -0.82 | 2.48 | -0.82 | -0.42 | -0.82 | 3.38 | -0.32 | -0.82 | -0.82 | -0.82 | -0.82 | -0.22 | -0.82 | 4.18 | -0.82 | 2.28 | -0.82 | -0.82 | -0.82 | 1.18
C[C@]12CC[C@H](O)CC1=CC[C@@H]1[C@@H]2CC[C@]2(C)C(c3cccnc3)=CC[C@@H]12 [Abiraterone] (top concentration 5000 nM) | -0.12 | 1.78 | -0.12 | -0.12 | -0.12 | -0.12 | -0.12 | 1.18 | -0.12 | -0.02 | -0.12 | 3.48 | 1.28 | 0.08 | 3.08 | -0.12 | -0.12 | 0.28 | -0.12 | -0.02
CS(=O)(=O)CCNCc1ccc(-c2ccc3ncnc(Nc4ccc(OCc5cccc(F)c5)c(Cl)c4)c3c2)o1 [Lapatinib] (top concentration 1000 nM) | 0 | 0 | 0 | 0.2 | 0 | 0 | 0 | 0 | 0 | 0 | 0 | 0 | 0 | 0 | 0 | 0 | 0 | 0 | 0 | 0
Cc1cc2c(C(=O)NC[C@H](C)c3ccccc3)c(O)c(O)cc2c(O)c1-c1c(C)cc2c(C(=O)NC[C@H](C)c3ccccc3)c(O)c(O)cc2c1O [Sabutoclax] (top concentration 25000 nM) | 16.3 | 17.9 | 2.98 | 14.9 | 5.18 | 11.3 | 14.3 | 13.8 | 10.4 | 16 | 9.18 | 12.2 | 17.6 | 10.8 | -8.22 | 15.9 | -7.42 | -7.22 | 14.5 | 16.8
COc1cc2ncnc(Nc3ccc(F)c(Cl)c3)c2cc1NC(=O)/C=C/CN1CCCCC1 [Dacomitinib] (top concentration 1000 nM) | 3.76 | -0.34 | -1.64 | 0.96 | -0.54 | -1.64 | -1.64 | -0.94 | 0.86 | -1.34 | -1.54 | 3.06 | -1.04 | -1.24 | -1.64 | -0.34 | 1.46 | 1.86 | -0.14 | 0.16
COc1cc(Br)c(Nc2nc(-c3c(C)nc4ncccn34)cs2)c(Br)c1 [PTC-209] (top concentration 10000 nM) | 0.72 | 4.82 | -2.58 | 1.92 | 0.92 | -2.68 | 2.22 | 0.12 | 2.42 | -0.18 | -0.48 | -0.98 | 0.72 | 4.12 | -1.78 | 5.62 | -2.18 | -2.68 | -0.38 | 7.12
Cc1ccc(F)c(NC(=O)Nc2ccc(-c3cccc4[nH]nc(N)c34)cc2)c1 [Linifanib] (top concentration 1000 nM) | -1.12 | -1.12 | -1.12 | -1.12 | 6.08 | -1.12 | -1.12 | -1.12 | 1.28 | -1.12 | -1.12 | -1.12 | -1.12 | -1.12 | -1.12 | -1.12 | -1.12 | -1.12 | -1.12 | -1.12
C=CC(=O)N1CCC(Oc2cc3c(Nc4ccc(Cl)c(Cl)c4F)ncnc3cc2OC)CC1 [Poziotinib] (top concentration 1000 nM) | 3.68 | -0.22 | -0.22 | 0.98 | -0.22 | 5.98 | -0.22 | 0.78 | 3.88 | 2.98 | -0.22 | -0.22 | -0.22 | 3.98 | 3.28 | -0.22 | 1.28 | 0.68 | -0.22 | 4.98
COc1cc2ncnc(Nc3cccc(Cl)c3F)c2cc1OC(=O)N1CCN(C)C[C@H]1C [AZD3759] (top concentration 1000 nM) | -0.04 | -0.04 | -0.04 | -0.04 | -0.04 | -0.04 | -0.04 | -0.04 | -0.04 | -0.04 | -0.04 | 1.26 | -0.04 | 0.96 | 0.86 | -0.04 | 0.06 | -0.04 | -0.04 | -0.04
CCCOc1ccn2c(C(C)=O)cc(-c3ccccc3S(C)(=O)=O)c2c1 [GSK2801] (top concentration 10000 nM) | -0.36 | 1.94 | -0.36 | -0.36 | -0.36 | 4.84 | -0.36 | 0.24 | -0.36 | -0.36 | -0.16 | 0.04 | -0.16 | 4.44 | -0.36 | -0.16 | -0.36 | -0.36 | 0.34 | 3.24
CCn1cc(-c2ccnc3[nH]c(-c4cccc(CN(C)C)c4)cc23)c(-c2ccc(NC(=O)N(C)C)cc2)n1 (top concentration 1000 nM) | 15.5 | 11.2 | -1.84 | 20.3 | 9.86 | 17.7 | 13.8 | 23.4 | 17.9 | 23.9 | 13.1 | 13.2 | 14.9 | 22.9 | 13.1 | 20.5 | 13.5 | 7.46 | 20.4 | 14
Cc1c(Cn2c(C)nc3c(C(=O)O)cc(N4CCOCC4)cc32)cccc1C(F)(F)F (top concentration 10000 nM) | -0.02 | 0.38 | -0.02 | 1.08 | -0.02 | -0.02 | -0.02 | -0.02 | 0.58 | 0.38 | -0.02 | 0.08 | -0.02 | -0.02 | 0.68 | 1.28 | -0.02 | 0.58 | -0.02 | 5.18
C=CCc1cccc(/C=N/NC(=O)CN2CCN(Cc3ccccc3)CC2)c1O [PAC-1] (top concentration 10000 nM) | 1.78 | 5.28 | 2.08 | 0.38 | 0.98 | -0.72 | 2.18 | 0.18 | 2.98 | 2.08 | 2.58 | 0.98 | 2.68 | 1.18 | -0.42 | 4.08 | 0.98 | 1.18 | 2.58 | 1.18
